Assay results: ChEMBL document CHEMBL1201861, “Genomics of Drug Sensitity in Cancer screening data, Wellcome Trust Sanger Institute”

Assays:
NCI-H128 = assay: SANGER: Inhibition of human NCI-H128 cell growth in a cell viability assay.; format: functional, cell-based
NCI-H378 = assay: SANGER: Inhibition of human NCI-H378 cell growth in a cell viability assay.; format: functional, cell-based
TC-YIK = assay: SANGER: Inhibition of human TC-YIK cell growth in a cell viability assay.; format: functional, cell-based
EW-12 = assay: SANGER: Inhibition of human EW-12 cell growth in a cell viability assay.; format: functional, cell-based
ECC12 = assay: cells; format: functional, cell-based; conditions: Homo sapiens
Description: SANGER: Inhibition of human ECC12 cell growth in a cell viability assay.

SW900 = assay: cells; format: functional, cell-based, Homo sapiens; conditions: Homo sapiens, SW900;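 note: IC50 is the concentration that inhibits SW900 cell growth, measured by a cell viability assay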
Description: SANGER: Inhibition of human SW900 cell growth in a cell viability assay.

NCI-H1666 = assay: cells; format: functional, cell-based, Homo sapiens; conditions: Homo sapiens, NCI-H1666;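 note: growth inhibition of the cell line, read out with a cell viability assay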
Description: SANGER: Inhibition of human NCI-H1666 cell growth in a cell viability assay.

BALL-1 = assay: cells; format: functional, cell-based, Homo sapiens; conditions: Homo sapiens, BALL-1;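 note: growth inhibition of BALL-1 cells, read out with a cell viability assay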
Description: SANGER: Inhibition of human BALL-1 cell growth in a cell viability assay.

ECC10 = assay: cells; format: functional, cell-based, Homo sapiens; conditions: Homo sapiens, ECC10;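 note: growth inhibition of ECC10 cells, read out by a cell viability assay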
Description: SANGER: Inhibition of human ECC10 cell growth in a cell viability assay.

CHP-134 = assay: SANGER: Inhibition of human CHP-134 cell growth in a cell viability assay.; format: functional, cell-based
TGBC11TKB = assay: cells; format: functional, cell-based, Homo sapiens; conditions: Homo sapiens, TGBC11TKB;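 note: growth inhibition of human TGBC11TKB cells, measured by a cell viability assay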
Description: SANGER: Inhibition of human TGBC11TKB cell growth in a cell viability assay.

RH-18 = assay: cells; format: functional, cell-based, Homo sapiens; conditions: Homo sapiens, Rh18;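 note: growth inhibition of human RH-18 cells, read out with a cell viability assay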
Description: SANGER: Inhibition of human RH-18 cell growth in a cell viability assay.

NBsusSR = assay: cells; format: functional, cell-based, Homo sapiens; conditions: Homo sapiens, NBsusSR;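 note: growth inhibition of the human cell line, read out with a cell viability assay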
Description: SANGER: Inhibition of human NBsusSR cell growth in a cell viability assay.

SK-MG-1 = assay: SANGER: Inhibition of human SK-MG-1 cell growth in a cell viability assay.; format: functional, cell-based
RT-4 = assay: SANGER: Inhibition of human RT4 cell growth in a cell viability assay.; format: functional, cell-based; conditions: Homo sapiens, RT-4
EW-7 = assay: SANGER: Inhibition of human EW-7 cell growth in a cell viability assay.; format: functional, cell-based; conditions: Homo sapiens, EW-7
MES-SA = assay: cells; format: functional, cell-based, Homo sapiens; conditions: Homo sapiens, MES-SA;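 note: growth inhibition of human MES-SA cells, read out with a cell viability assay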
Description: SANGER: Inhibition of human MES-SA cell growth in a cell viability assay.

SK-MEL-5 = assay: SANGER: Inhibition of human SK-MEL-5 cell growth in a cell viability assay.; format: functional, cell-based
SNG-M = assay: cells; format: functional, cell-based, Homo sapiens; conditions: Homo sapiens, SNG-M
Description: SANGER: Inhibition of human SNG-M cell growth in a cell viability assay.

Caov-4 = assay: cells; format: functional, cell-based; conditions: Homo sapiens
Description: SANGER: Inhibition of human Caov-4 cell growth in a cell viability assay.

NCI-H1734 = assay: cells; format: functional, cell-based, Homo sapiens; conditions: Homo sapiens, NCI-H1734;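 note: growth inhibition of human NCI-H1734 cells, read out with a cell viability assay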
Description: SANGER: Inhibition of human NCI-H1734 cell growth in a cell viability assay.

SNU-475 = assay: cells; format: functional, cell-based, Homo sapiens; conditions: Homo sapiens, SNU-475
Description: SANGER: Inhibition of human SNU-475 cell growth in a cell viability assay.

SK-CO-1 = assay: cells; format: functional, cell-based, Homo sapiens; conditions: Homo sapiens, SK-CO-1;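 note: growth inhibition of SK-CO-1 cells, determined by a viability readout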
Description: SANGER: Inhibition of human SK-CO-1 cell growth in a cell viability assay.

TT = assay: cells; format: functional, cell-based, Homo sapiens; conditions: Homo sapiens, TT
Description: SANGER: Inhibition of human TT cell growth in a cell viability assay.

NCI-H1618 = assay: cells; format: functional, cell-based, Homo sapiens; conditions: Homo sapiens, NCI-H1618;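 note: growth inhibition of human NCI-H1618 cells, measured by a cell viability assay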
Description: SANGER: Inhibition of human NCI-H1618 cell growth in a cell viability assay.

DV-90 = assay: cells; format: functional, cell-based, Homo sapiens; conditions: Homo sapiens, DV-90;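 note: Read-out is a viability assay, with IC50 reflecting the drop in DV-90 cell growth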
Description: SANGER: Inhibition of human DV-90 cell growth in a cell viability assay.

C-4-II = assay: SANGER: Inhibition of human C-4-II cell growth in a cell viability assay.; format: functional, cell-based; conditions: Homo sapiens, C-4-II

COc1cc2ncn(-c3cc(OCc4ccccc4S(C)(=O)=O)c(C#N)s3)c2cc1OC [GSK-319347A]
IC50 (NCI-H128): > 5000 nM
IC50 (NCI-H378): > 5000 nM
IC50 (TC-YIK): > 5000 nM
IC50 (EW-12): > 5000 nM
IC50 (ECC12): > 5000 nM

COc1cc2c(Nc3ccc(NC(=O)c4ccccc4)cc3)ncnc2cc1OCCCN1CCOCC1
IC50 (SW900): > 4000 nM
IC50 (NCI-H1666): > 4000 nM
IC50 (BALL-1): > 4000 nM
IC50 (ECC10): 1630 nM
IC50 (CHP-134): 1230 nM
IC50 (TGBC11TKB): > 4000 nM
IC50 (RH-18): > 4000 nM
IC50 (NBsusSR): 914 nM

CC(C)c1ccccc1Cc1cc(C(=O)Nc2ccc(S(=O)(=O)c3ccccc3C(C)(C)C)cc2)c(O)c(O)c1O
IC50 (SK-MG-1): 2580 nM
IC50 (SW900): 2770 nM
IC50 (NCI-H1666): 378 nM
IC50 (RT-4): 10600 nM
IC50 (EW-7): 167 nM
IC50 (MES-SA): 1110 nM
IC50 (SK-MEL-5): 69.2 nM
IC50 (RH-18): 1070 nM

N#Cc1c(O)c2c(-c3ccc(-c4ccccc4O)cc3)csc2[nH]c1=O
IC50 (SNG-M): > 1020 nM
IC50 (Caov-4): > 1020 nM
IC50 (NCI-H1734): > 1020 nM
IC50 (SNU-475): > 1020 nM
IC50 (RT-4): > 1020 nM
IC50 (EW-7): > 1020 nM
IC50 (SK-CO-1): > 1020 nM
IC50 (MES-SA): > 1020 nM
IC50 (TT): > 1020 nM
IC50 (ECC12): > 1020 nM
IC50 (NCI-H1618): > 1020 nM
IC50 (DV-90): > 1020 nM
IC50 (C-4-II): > 1020 nM

CC1(C)CNc2cc(NC(=O)c3cccnc3NCc3ccncc3)ccc21 [MOTESANIB]
IC50 (SW900): > 2000 nM
IC50 (NCI-H1666): > 2000 nM
IC50 (BALL-1): > 2000 nM
IC50 (ECC10): > 2000 nM
IC50 (CHP-134): > 2000 nM
IC50 (TGBC11TKB): > 2000 nM
IC50 (RH-18): > 2000 nM
IC50 (NBsusSR): > 2000 nM
